Source: publication PMC7582705, “Structure-Based Discovery of Novel Chemical Classes of Autotaxin Inhibitors” (International Journal of Molecular Sciences, 2020)
Read-outs that look alike come from different tables or passages of the source. Values belong to the compound of their own block, whether it stands above or below them.

Assays:
Solubility (Table S1) = settings: YES/NO
ATX [1] = biological target: T1, ATX (Homo sapiens, UniProt Q13822); assay: Amplex Red Lyso-phospholipase D assay, human ATX; format: biochemical; parameters: purchased Sino Biological; settings: for inhibition at 30 µM: read-out: %inhibition at 30uM
Experimental: (§1) All compounds proposed were assessed for their ATX inhibitory activity in vitro using the Amplex Red assay. The Amplex Red Lyso-phospholipase D assay is a fluorometry-based assay providing a sensitive method for measuring Lyso-phospholipase D (ATX) activity in vitro. In this enzyme-coupled assay, ATX activity is monitored indirectly using 10-acetyl-3,7-dihydrophenoxazine (Amplex Red reagent), a sensitive fluorogenic probe for H2O2. ATX initially cleaves the Lysophosphatidylcholine (LPC) substrate to yield choline and Lysophosphatidic acid (LPA), while choline gets subsequently oxidized by choline oxidase to betaine and H2O2. Lastly, H2O2, in the presence of horseradish peroxidase (HRP), reacts with Amplex Red reagent in a 1:1 stoichiometry to generate the highly fluorescent product resorufin.
The inhibition assay was performed as previously described with some modifications in order to accommodate the newly-discovered lag phase in ATX kinetics. To this end, and in order to provide adequate time to the hydrolysis of LPC by ATX, we added a 30min incubation period between ATX, inhibitors and LPC. Briefly, 2 μL of different concentrations of inhibitors diluted in DMSO (Sigma-Aldrich, St. Louis, MO, USA) were incubated with 50 µL of ATX 8 nM (human or mouse ATX from Sino Biological), and 48 µL reaction buffer (50 mM Tris-Cl pH 8.0 from Thermo Fisher Scientific, Waltham, MA, USA and 5 mM CaCl2 from Honeywell-Fluka, Charlotte, NC, USA) in a black 96-well microplate for 15 min at 37 °C. Thence, another 50 µL of reaction buffer with 200 μM LPC substrate 16:0 (Avanti Polar Lipids Inc, Alabaster, AL, USA) ([…]) was added to the reaction mixture and incubated for 30 min at 37 °C in order for ATX to convert LPC to LPA and choline. Finally, 50 µL of working solution containing 200 μM Amplex Red (Invitrogen, Carlsbad, CA, USA), 4 U/mL HRP (Sigma-Aldrich, St. Louis, MO, USA), 0.4 U/mL choline oxidase (Sigma-Aldrich, St. Louis, MO, USA) in 50 mM Tris-HCl pH 8.0 and 5 mM CaCl2 was added to measure the produced choline. The reaction was monitored at 37 °C in a fluorescence plate reader using excitation at 530 nm and reading at 590 nm, every 5 min for 30 min. The velocity of the reaction and the remaining activity of ATX were calculated at the linear phase of the reaction and dose-response inhibition graphs were plotted with GraphPad Software (GraphPad Software, San Diego, CA, USA). […] In order to evaluate a possible effect of the compounds on the second (choline oxidase) and third (HRP) enzymes of the Amplex Red assay, we also performed the assay in the absence of ATX but in the presence of the compounds. Instead of ATX, we added choline chloride at a final concentration of 2 µM so as the second and third steps of the assay could proceed normally.

mouse ATX [2] = biological target: T2, mouse ATX (Mus musculus, UniProt Q9R1E6); assay: Amplex Red Lyso-phospholipase D assay, mouse ATX; format: biochemical
T2 construct: purchased Sino Biological
Experimental: as §1
The inhibition assay was performed as previously described with some modifications in order to accommodate the newly-discovered lag phase in ATX kinetics. To this end, and in order to provide adequate time to the hydrolysis of LPC by ATX, we added a 30min incubation period between ATX, inhibitors and LPC. Briefly, 2 μL of different concentrations of inhibitors diluted in DMSO (Sigma-Aldrich, St. Louis, MO, USA) were incubated with 50 µL of ATX 8 nM (human or mouse ATX from Sino Biological), and 48 µL reaction buffer (50 mM Tris-Cl pH 8.0 from Thermo Fisher Scientific, Waltham, MA, USA and 5 mM CaCl2 from Honeywell-Fluka, Charlotte, NC, USA) in a black 96-well microplate for 15 min at 37 °C. Thence, another 50 µL of reaction buffer with 200 μM LPC substrate 16:0 (Avanti Polar Lipids Inc, Alabaster, AL, USA) (final concentrations of LPC and ATX are 50 µM and 2 nM, respectively) was added to the reaction mixture and incubated for 30 min at 37 °C in order for ATX to convert LPC to LPA and choline. Finally, 50 µL of working solution containing 200 μM Amplex Red (Invitrogen, Carlsbad, CA, USA), 4 U/mL HRP (Sigma-Aldrich, St. Louis, MO, USA), 0.4 U/mL choline oxidase (Sigma-Aldrich, St. Louis, MO, USA) in 50 mM Tris-HCl pH 8.0 and 5 mM CaCl2 was added to measure the produced choline. The reaction was monitored at 37 °C in a fluorescence plate reader using excitation at 530 nm and reading at 590 nm, every 5 min for 30 min. The velocity of the reaction and the remaining activity of ATX were calculated at the linear phase of the reaction and dose-response inhibition graphs were plotted with GraphPad Software (GraphPad Software, San Diego, CA, USA). […] In order to evaluate a possible effect of the compounds on the second (choline oxidase) and third (HRP) enzymes of the Amplex Red assay, we also performed the assay in the absence of ATX but in the presence of the compounds. Instead of ATX, we added choline chloride at a final concentration of 2 µM so as the second and third steps of the assay could proceed normally.

ATX [3] = biological target: T1, ATX; assay: IC50 Eleanna (Table S2, method not described); format: biochemical
mouse ATX [4] = biological target: T2, mouse ATX; assay: Mode of inhibition, modified Amplex assay, Lineweaver-Burk plots; format: biochemical; settings: various LPC and inhibitor concentrations
Experimental: Lastly, to get insight into the mode of inhibition of the new ATX inhibitors developed in the present study, the Lineweaver–Burk plots were performed.
To determine the mode of inhibition of ATX by each inhibitor, a modified Amplex assay was employed. […] Mouse ATX from Sino Biological was used in all mode of inhibition assays. Thereafter, the velocity (V) of the reaction was calculated and the reciprocal of velocity (1/V) was plotted against the reciprocal of substrate concentration (1/S) in Lineweaver–Burk graphs using GraphPad Software (GraphPad Software, San Diego, CA, USA).

phosphodiesterase (PDE) = assay: Phosphodiesterase (PDE) colorimetric assay, 3',5'-cAMP and 3',5'-cGMP as substrates; format: biochemical; settings: for activity against PDE: in words
From the text: This colorimetric assay kit uses 3′,5′-cAMP and 3′,5′-cGMP as substrates, and it is useful for the screening of inhibitors of nucleotide phosphodiesterase activity.

[5] = recombinant human ATX 2 nM, LPC 16:0 substrate, Amplex Red, read-out: IC50 hATX
[6] = in vitro IC50 (hATX 1nM), Table S2, hATX 1nM
[7] = in vitro IC50 (mATX 2nM), Table S2, mATX 2nM
[8] = Table S2, read-out: IC50 Eleanna
[9] = in vitro IC50 (Sino hATX 2nM), Table S2, Sino hATX 2nM
[10] = recombinant mouse ATX 2 nM, LPC 16:0 substrate, Amplex Red, read-out: IC50 mATX
[11] = IC50 hATX, recombinant human ATX 2 nM, LPC 16:0 substrate, Amplex Red

SMILES: CCOC(=O)c1c(CN2CCCC2)n(-c2ccccc2)c2cc(Br)c(OC)cc12 [KM-3, ethyl 6-bromo-5-methoxy-1-phenyl-2-(pyrrolidin-1-ylmethyl)indole-3-carboxylate]
inhibition at 30 µM (ATX [1]; Table S2, at 30uM): 17%
IC50 (ATX [1]; [6]): 54 µM
IC50 (mouse ATX [2]; [7]): 57 µM

SMILES: CCOC(=O)c1c(CN2CCCCC2)n(Cc2ccccc2)c2cc(Br)c(O)cc12 [KM-14, ethyl 1-benzyl-6-bromo-5-hydroxy-2-(piperidin-1-ylmethyl)-1H-indole-3-carboxylate]
IC50 (ATX [3]): 0.8 µM
Mode of Inhibition (mouse ATX [4]): mixed
IC50 (ATX [1]): 13.8 µM
inhibition at 30 µM (ATX [1]): 69%
IC50 (mouse ATX [2]): 5.9 µM

SMILES: COc1ccccc1NC(=S)N1CCn2cccc2C1c1ccc(OC)c(OC)c1 (stereo not shown) [KM-41, 1-(3,4-dimethoxyphenyl)-N-(2-methoxyphenyl)-3,4-dihydro-1H-pyrrolo[1,2-a]pyrazine-2-carbothioamide]
IC50 (ATX [3]; [8]): 0.3 µM
inhibition at 30 µM (ATX [1]; Table S2, at 30uM): 33.5%
IC50 (ATX [1]; [6]): 38 µM
IC50 (mouse ATX [2]; [7]): 60 µM

SMILES: O=C1C2=C([CH]C=C[CH]2)C(=O)N1CN(Cc1csc2ccccc12)CN1C(=O)c2ccccc2C1=O [PD00399]
Solubility (Solubility (Table S1)): YES
IC50 (ATX [1]; [11]): > 100 µM

SMILES: COc1ccc(-n2c(-c3ccc(Cl)cc3)cc(-c3cccs3)c2-c2ccccc2)cc1 [RG00099, 5-(4-chlorophenyl)-1-(4-methoxyphenyl)-2-phenyl-3-(2-thienyl)-1H-pyrrole]
Solubility (Solubility (Table S1)): YES
IC50 (ATX [1]; [5]): > 100 µM

SMILES: O=C(Nc1c2c(nn1-c1ccc([N+](=O)[O-])cc1)CSC2)c1cccc2ccccc12 [SC-49, N-[2-(4-nitrophenyl)-4,6-dihydrothieno[3,4-c]pyrazol-3-yl]naphthalene-1-carboxamide]
IC50 (ATX [3]): 0.2 µM
IC50 (ATX [1]; [11]): 10.2 µM
IC50 (ATX [1]; [9]): 10.2 µM
IC50 (ATX [1]; [6]): 9 µM
inhibition at 30 µM (ATX [1]): 65.8%
activity against PDE (phosphodiesterase (PDE)): outstanding activity
IC50 (mouse ATX [2]): 9.7 µM

SMILES: NC(=NOC(=O)c1ccc(-c2cccs2)s1)c1cccc(C(F)(F)F)c1 [SEW02612, N'-{[5-(2-thienyl)-2-thienylcarbonyl]oxy}-3-(trifluoromethyl)benzenecarboximidamide]
Solubility (Solubility (Table S1)): YES
IC50 (ATX [1]; [5]): > 100 µM

SMILES: O=S(=O)(Nc1cc(-c2cccs2)nn1-c1ccc(F)cc1)c1ccc(-c2cc(C(F)(F)F)on2)s1 [SP00998]
Solubility (Solubility (Table S1)): YES
IC50 (ATX [1]; [5]): > 100 µM

Further lines, results first:

Solubility (Solubility (Table S1)): YES
IC50 (ATX [1]; [5]): > 100 µM
SMILES: Cc1ccc(C2=CC(c3cn(-c4ccccc4)nc3-c3ccccc3)N3C(=O)CSC3=N2)cc1 (stereo not shown) [HTS09893, 5-(1,3-diphenylpyrazol-4-yl)-7-(4-methylphenyl)-5H-[1,3]thiazolo[3,2-a]pyrimidin-3-one]

Solubility (Solubility (Table S1)): YES
IC50 (ATX [1]; [5]): > 100 µM
SMILES: O=C(CN1CCN(C2c3ccccc3-c3ccccc32)CC1)c1ccc2c(c1)OCO2 [HTS10658, 1-(1,3-benzodioxol-5-yl)-2-[4-(9H-fluoren-9-yl)piperazin-1-yl]ethanone]

Solubility (Solubility (Table S1)): YES
IC50 (ATX [1]; [5]): > 100 µM
SMILES: Nc1ncnc2c1ncn2CCc1ccccc1 [HTS11215, 9-phenethyl-9H-purin-6-amine]

Solubility (Solubility (Table S1)): YES
IC50 (ATX [1]; [5]): > 100 µM
SMILES: NC(=NOC(=O)c1cncc(C#Cc2ccccc2)c1)c1cccc(C(F)(F)F)c1 [KM08386, O1-{[5-(2-phenyleth-1-ynyl)-3-pyridyl]carbonyl}-3-(trifluoromethyl)benzene-1-carbohydroximamide]

IC50 (ATX [3]; [8]): 2 µM
inhibition at 30 µM (ATX [1]; Table S2, at 30uM): 84.2%
IC50 (ATX [1]; [9]): 1.85 µM
IC50 (ATX [1]; [5]): 1.8 µM
IC50 (phosphodiesterase (PDE)): 0.9 µM
activity against PDE (phosphodiesterase (PDE)): outstanding activity
IC50 (mouse ATX [2]; [10]): 3 µM
SMILES: Cc1cccc(C)c1NC(=O)CSc1nc2ccccc2c(=O)n1CCc1cccs1 [KM-28, N-(2,6-dimethylphenyl)-2-[4-oxo-3-(2-thiophen-2-ylethyl)quinazolin-2-yl]sulfanylacetamide]

Solubility (Solubility (Table S1)): YES
IC50 (ATX [1]; [5]): > 100 µM
SMILES: O=C(NC(=O)c1ccc(-c2ccc(Cl)cc2)s1)Nc1cc(C(F)(F)F)cc(C(F)(F)F)c1 [MBE00201, N-[[3,5-bis(trifluoromethyl)phenyl]carbamoyl]-5-(4-chlorophenyl)thiophene-2-carboxamide]

Solubility (Solubility (Table S1)): YES
IC50 (ATX [1]; [5]): > 100 µM
SMILES: O=C(C(=Cc1ccccc1)n1ccnc1)c1ccccc1OCc1ccccc1 [NRB02626, 1-[2-(benzyloxy)phenyl]-2-(1H-imidazol-1-yl)-3-phenylprop-2-en-1-0ne]

Solubility (Solubility (Table S1)): YES
IC50 (ATX [1]; [5]): > 100 µM
SMILES: COc1ccc(C2C(C(=O)O)c3ccccc3C(=O)N2Cc2ccc(F)cc2)cc1 (stereo not shown) [PD00668, 2-(4-fluorobenzyl)-3-(4-methoxyphenyl)-1-oxo-1,2,3,4-tetrahydroisoquinoline-4-carboxylic acid]

Solubility (Solubility (Table S1)): YES
IC50 (ATX [1]; [5]): > 100 µM
SMILES: FC(F)(F)c1ccc2c(c1)nc(SCc1ccccc1)n2CCc1ccccc1 [RDR02791, 2-benzylsulfanyl-1-(2-phenylethyl)-5-(trifluoromethyl)benzimidazole]

Solubility (Solubility (Table S1)): YES
IC50 (ATX [1]; [5]): > 100 µM
SMILES: CC(=O)Oc1ccccc1C(=CC=C(c1ccccc1)c1ccccc1)N1CCOCC1 [RF01254, 2-(1-morpholino-4,4-diphenylbuta-1,3-dienyl)phenyl acetate]

IC50 (ATX [3]; [8]): 0.6 µM
Solubility (Solubility (Table S1)): YES
inhibition at 30 µM (ATX [1]; Table S2, at 30uM): 13.2%
IC50 (ATX [1]; [6]): 43 µM
IC50 (ATX [1]; [5]): 79 µM
IC50 (mouse ATX [2]; [10]): 67 µM
SMILES: O=C1Nc2ccccc2/C1=C/c1cc2ccccc2n1S(=O)(=O)c1ccccc1 [SCR01013, (3Z)-3-[[1-(Benzenesulfonyl)indol-2-yl]methylidene]-1H-indol-2-one]
